This note sets out measurements from article PMC6203352, “Involvement of VNUT-exocytosis in transient receptor potential vanilloid 4-dependent ATP release from gastrointestinal epithelium” (PLoS ONE, 2018).

Common to all, as to format: cell-based
The target of experiment [1] is T1, TRPV4 (Homo sapiens, UniProt Q9HBA0). Description: fura-2 Ca2+ imaging dose-response in CCD […] cells (endogenous TRPV4), blocked by RN1734.
Experiment [2] deals with T1, TRPV4. As to the kind of experiment: inhibition of GSK101 ([…])-induced Ca2+ response, fura-2 imaging in CCD […] cells (endogenous TRPV4).
For experiment [3], the target named is T1, TRPV4. Description: fura-2 Ca2+ imaging dose-response in CCD […] cells (endogenous TRPV4).

T1 sequence (Q9HBA0 whole entry): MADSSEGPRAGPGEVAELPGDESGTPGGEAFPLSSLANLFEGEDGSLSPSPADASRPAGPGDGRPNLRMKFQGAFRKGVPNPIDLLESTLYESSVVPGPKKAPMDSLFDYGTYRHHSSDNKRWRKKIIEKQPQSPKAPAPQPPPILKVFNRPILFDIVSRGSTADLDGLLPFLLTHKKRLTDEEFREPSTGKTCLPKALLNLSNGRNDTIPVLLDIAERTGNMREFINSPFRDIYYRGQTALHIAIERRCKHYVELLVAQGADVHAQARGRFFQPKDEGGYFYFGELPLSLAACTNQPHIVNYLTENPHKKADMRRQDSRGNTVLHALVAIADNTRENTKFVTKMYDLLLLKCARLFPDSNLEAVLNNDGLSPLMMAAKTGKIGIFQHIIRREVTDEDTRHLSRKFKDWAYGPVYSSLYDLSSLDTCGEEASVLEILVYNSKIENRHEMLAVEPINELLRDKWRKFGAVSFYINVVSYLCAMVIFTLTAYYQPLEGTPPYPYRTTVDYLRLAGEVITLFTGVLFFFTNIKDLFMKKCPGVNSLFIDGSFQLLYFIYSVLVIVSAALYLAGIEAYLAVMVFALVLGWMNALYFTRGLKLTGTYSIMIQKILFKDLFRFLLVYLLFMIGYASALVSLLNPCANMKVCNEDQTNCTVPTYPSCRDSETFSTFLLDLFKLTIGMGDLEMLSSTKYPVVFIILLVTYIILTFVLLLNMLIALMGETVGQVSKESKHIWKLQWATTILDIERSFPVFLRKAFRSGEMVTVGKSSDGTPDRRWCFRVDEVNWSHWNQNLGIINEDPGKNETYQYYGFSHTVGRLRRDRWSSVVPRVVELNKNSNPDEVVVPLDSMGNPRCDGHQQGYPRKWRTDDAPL

For orientation: EC50 means the concentration giving half of the maximal effect. Read a low EC50 as higher potency in that assay. In experiment [1], `CCCCC/C=C\C/C=C\CC1OC1C/C=C\CCCC(=O)OC` (stereo not drawn) [8,9-EET methylestel] registered a half-maximal effective concentration (EC50) of 111 nM.

One may read the IC50 as the concentration at which inhibition is half-maximal. Lower therefore signals greater potency in that assay. For `CC(C)NCCN(C(C)C)S(=O)(=O)c1ccc(Cl)cc1Cl` [RN1734], the 50% inhibitory concentration (IC50) in experiment [2] worked out at 0.703 nM. Consider `CC(C)C[C@H](NC(=O)c1cc2ccccc2s1)C(=O)N1CCN(C(=O)[C@H](CO)NS(=O)(=O)c2ccc(Cl)cc2Cl)CC1` [GSK101, N-((1S)-1-{[4-((2S)-2-{[(2,4-dichlorophenyl)sulfonyl]amino}-3-hydroxypropanoyl)-1-piperazinyl]carbonyl}-3-methylbutyl)-1-benzothiophene-2-carboxamide], for which a half-maximal response in experiment [3] (EC50) required 231 nM.
